Activity calls are given as the source filed them. The rule behind the calls is not given here.
Key:
HCC1937 [1] = experiment: Antiproliferative activity against human HCC1937 cells after 7 days by resazurin reduction assay; conditions: HCC1937, 168 h
MDA-MB-436 [2] = experiment: Antiproliferative activity against human MDA-MB-436 cells after 7 days by resazurin reduction assay; conditions: MDA-MB-436, 168 h
MDA-MB-436 [3] = experiment: Induction of DNA damage in BRCA1-deficient human MDA-MB-436 cells at 0.1 to 15 uM assessed as increase in accumulation of DNA double-strand breaks measuring gamma-H2AX levels by Western blot analysis; type: functional, cell-based; conditions: dose 0.1-15 µM
MCF7 = experiment: Induction of DNA damage in human MCF7 cells expressing BRCA1 at 0.1 to 15 uM assessed as increase in accumulation of DNA double-strand breaks measuring gamma-H2AX levels by Western blot analysis; type: functional, cell-based; conditions: dose 0.1-15 µM
MDA-MB-436 [4] = experiment: Induction of apoptosis in BRCA1-deficient human MDA-MB-436 cells at 0.1 to 15 uM measured after 24 hrs by Annexin V/propidium iodide (PI) based FACS analysis; type: functional, cell-based; conditions: dose 0.1-15 µM
HCC1937 [5] = experiment: Induction of apoptosis in BRCA1-deficient human HCC1937 cells at 0.1 to 15 uM measured after 24 hrs by Annexin V/propidium iodide (PI) based FACS analysis; type: functional, cell-based; conditions: dose 0.1-15 µM
MDA-MB-436 [6] = experiment: Cell cycle arrest in BRCA1-deficient human MDA-MB-436 cells assessed as accumulation at G1 phase at 0.1 uM measured after 24 hrs by propidium iodide (PI) based FACS analysis (reference value: 26.7%); type: functional
MDA-MB-436 [7] = experiment: Cell cycle arrest in BRCA1-deficient human MDA-MB-436 cells assessed as accumulation at S phase at 0.1 uM measured after 24 hrs by propidium iodide (PI) based FACS analysis (reference value: 27.4%); type: functional
MDA-MB-436 [8] = experiment: Cell cycle arrest in BRCA1-deficient human MDA-MB-436 cells assessed as accumulation at G2 phase at 0.1 uM measured after 24 hrs by propidium iodide (PI) based FACS analysis (reference value: 17.6%); type: functional
MDA-MB-436 [9] = experiment: Cell cycle arrest in BRCA1-deficient human MDA-MB-436 cells assessed as accumulation at G1 phase at 1 uM measured after 24 hrs by propidium iodide (PI) based FACS analysis (reference value: 26.7%); type: functional
MDA-MB-436 [10] = experiment: Cell cycle arrest in BRCA1-deficient human MDA-MB-436 cells assessed as accumulation at S phase at 1 uM measured after 24 hrs by propidium iodide (PI) based FACS analysis (reference value: 27.4%); type: functional
MDA-MB-436 [11] = experiment: Cell cycle arrest in BRCA1-deficient human MDA-MB-436 cells assessed as accumulation at G2 phase at 1 uM measured after 24 hrs by propidium iodide (PI) based FACS analysis (reference value: 17.6%); type: functional
MDA-MB-436 [12] = experiment: Cell cycle arrest in BRCA1-deficient human MDA-MB-436 cells assessed as accumulation at G1 phase at 5 uM measured after 24 hrs by propidium iodide (PI) based FACS analysis (reference value: 26.7%); type: functional
MDA-MB-436 [13] = experiment: Cell cycle arrest in BRCA1-deficient human MDA-MB-436 cells assessed as accumulation at S phase at 5 uM measured after 24 hrs by propidium iodide (PI) based FACS analysis (reference value: 27.4%); type: functional
MDA-MB-436 [14] = experiment: Cell cycle arrest in BRCA1-deficient human MDA-MB-436 cells assessed as accumulation at G2 phase at 5 uM measured after 24 hrs by propidium iodide (PI) based FACS analysis (reference value: 17.6%); type: functional
MDA-MB-436 [15] = experiment: Cell cycle arrest in BRCA1-deficient human MDA-MB-436 cells assessed as accumulation at G1 phase at 15 uM measured after 24 hrs by propidium iodide (PI) based FACS analysis (reference value: 26.7%); type: functional
MDA-MB-436 [16] = experiment: Cell cycle arrest in BRCA1-deficient human MDA-MB-436 cells assessed as accumulation at S phase at 15 uM measured after 24 hrs by propidium iodide (PI) based FACS analysis (reference value: 27.4%); type: functional
MDA-MB-436 [17] = experiment: Cell cycle arrest in BRCA1-deficient human MDA-MB-436 cells assessed as accumulation at G2 phase at 15 uM measured after 24 hrs by propidium iodide (PI) based FACS analysis (reference value: 17.6%); type: functional
HCC1937 [18] = experiment: Cell cycle arrest in BRCA1-deficient human HCC1937 cells assessed as accumulation at G1 phase at 0.1 uM measured after 24 hrs by propidium iodide (PI) based FACS analysis (reference value: 31.6%); type: functional
HCC1937 [19] = experiment: Cell cycle arrest in BRCA1-deficient human HCC1937 cells assessed as accumulation at S phase at 0.1 uM measured after 24 hrs by propidium iodide (PI) based FACS analysis (reference value: 26%); type: functional
HCC1937 [20] = experiment: Cell cycle arrest in BRCA1-deficient human HCC1937 cells assessed as accumulation at G2 phase at 0.1 uM measured after 24 hrs by propidium iodide (PI) based FACS analysis (reference value: 13.5%); type: functional
HCC1937 [21] = experiment: Cell cycle arrest in BRCA1-deficient human HCC1937 cells assessed as accumulation at G1 phase at 1 uM measured after 24 hrs by propidium iodide (PI) based FACS analysis (reference value: 31.6%); type: functional
HCC1937 [22] = experiment: Cell cycle arrest in BRCA1-deficient human HCC1937 cells assessed as accumulation at S phase at 1 uM measured after 24 hrs by propidium iodide (PI) based FACS analysis (reference value: 26%); type: functional
HCC1937 [23] = experiment: Cell cycle arrest in BRCA1-deficient human HCC1937 cells assessed as accumulation at G2 phase at 1 uM measured after 24 hrs by propidium iodide (PI) based FACS analysis (reference value: 13.5%); type: functional
HCC1937 [24] = experiment: Cell cycle arrest in BRCA1-deficient human HCC1937 cells assessed as accumulation at G1 phase at 5 uM measured after 24 hrs by propidium iodide (PI) based FACS analysis (reference value: 31.6%); type: functional
HCC1937 [25] = experiment: Cell cycle arrest in BRCA1-deficient human HCC1937 cells assessed as accumulation at S phase at 5 uM measured after 24 hrs by propidium iodide (PI) based FACS analysis (reference value: 26%); type: functional
HCC1937 [26] = experiment: Cell cycle arrest in BRCA1-deficient human HCC1937 cells assessed as accumulation at G2 phase at 5 uM measured after 24 hrs by propidium iodide (PI) based FACS analysis (reference value: 13.5%); type: functional
HCC1937 [27] = experiment: Cell cycle arrest in BRCA1-deficient human HCC1937 cells assessed as accumulation at G1 phase at 15 uM measured after 24 hrs by propidium iodide (PI) based FACS analysis (reference value: 31.6%); type: functional
HCC1937 [28] = experiment: Cell cycle arrest in BRCA1-deficient human HCC1937 cells assessed as accumulation at S phase at 15 uM measured after 24 hrs by propidium iodide (PI) based FACS analysis (reference value: 26%); type: functional
HCC1937 [29] = experiment: Cell cycle arrest in BRCA1-deficient human HCC1937 cells assessed as accumulation at G2 phase at 15 uM measured after 24 hrs by propidium iodide (PI) based FACS analysis (reference value: 13.5%); type: functional

Structure (SMILES): COc1ccc(C(=O)C(=O)c2c(-c3ccc(OC)cc3)nc(NC(=O)CN3CCc4cc(OC)c(OC)cc4C3)n2C)cc1
- IC50 (HCC1937 [1]): 17.8 µM
- IC50 (MDA-MB-436 [2]): 12.6 µM
- Activity (MDA-MB-436 [3]): Active
- Activity (MCF7): Active
- Activity (MDA-MB-436 [4]): Active
- Activity (HCC1937 [5]): Active
- Activity (MDA-MB-436 [6]): 23.3%
- Activity (MDA-MB-436 [7]): 30.2%
- Activity (MDA-MB-436 [8]): 17%
- Activity (MDA-MB-436 [9]): 25.1%
- Activity (MDA-MB-436 [10]): 21.5%
- Activity (MDA-MB-436 [11]): 25.4%
- Activity (MDA-MB-436 [12]): 10.4%
- Activity (MDA-MB-436 [13]): 29.1%
- Activity (MDA-MB-436 [14]): 32.8%
- Activity (MDA-MB-436 [15]): 9.85%
- Activity (MDA-MB-436 [16]): 33.3%
- Activity (MDA-MB-436 [17]): 28.5%
- Activity (HCC1937 [18]): 36.6%
- Activity (HCC1937 [19]): 19.9%
- Activity (HCC1937 [20]): 18.3%
- Activity (HCC1937 [21]): 32.8%
- Activity (HCC1937 [22]): 18.7%
- Activity (HCC1937 [23]): 21.6%
- Activity (HCC1937 [24]): 24.7%
- Activity (HCC1937 [25]): 23.2%
- Activity (HCC1937 [26]): 22.4%
- Activity (HCC1937 [27]): 7%
- Activity (HCC1937 [28]): 17.8%
- Activity (HCC1937 [29]): 45.9%
